From the supplement of paper PMC10307832

Columns and labels:
Test in all cases: relative viability (nuclei count vs DMSO), 5 days (fraction); higher = more cells survive
[1] = compound: C[C@]12O[C@H](C[C@]1(O)CO)n1c3ccccc3c3c4c(c5c6ccccc6n2c5c31)CNC4=O [Lestaurtinib] + CC(=O)c1c(C)c2cnc(Nc3ccc(N4CCNCC4)cn3)nc2n(C2CCCC2)c1=O [Palbociclib] (partner 0.5 µM)
Outline: (§1)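 Each reported value is a median over duplicate plates. It expresses relative viability: treated-well nuclei count divided by vehicle-well nuclei count. Lung cancer cell lines in 1536-well plates were dosed by pin tool a day after seeding, alone with one drug or with a fixed anchor-drug dose plus five library-drug doses (not always all listed) in √10 steps, and nuclei were counted after 5 days.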

Lestaurtinib + AZD7762 = compound: C[C@]12O[C@H](C[C@]1(O)CO)n1c3ccccc3c3c4c(c5c6ccccc6n2c5c31)CNC4=O [Lestaurtinib] + NC(=O)Nc1cc(-c2cccc(F)c2)sc1C(=O)N[C@H]1CCCNC1 [AZD7762] (partner 0.2 µM)
Outline: as §1

[2] = compound: C[C@]12O[C@H](C[C@]1(O)CO)n1c3ccccc3c3c4c(c5c6ccccc6n2c5c31)CNC4=O [Lestaurtinib] + CC(=O)Nc1cccc(-n2c(=O)n(C3CC3)c(=O)c3c(Nc4ccc(I)cc4F)n(C)c(=O)c(C)c32)c1 [Trametinib] (partner 0.02 µM)
Outline: as §1

[3] = compound: C1/C(=C\C2=CC=CS2)/C(=O)/C(=C/C3=CC=CS3)/C1 + CS(=O)(=O)N1CCN(Cc2cc3nc(-c4cccc5[nH]ncc45)nc(N4CCOCC4)c3s2)CC1 [Pictilisib] (partner 1 µM)
Outline: as §1

| Cell Line | relative viability ([1]; first compound 0.005 µM) | relative viability ([1]; first compound 0.01581 µM) | relative viability ([1]; first compound 0.05 µM) | relative viability ([1]; first compound 0.1581 µM) | relative viability ([1]; first compound 0.5 µM) | relative viability (Lestaurtinib + AZD7762; first compound 0.005 µM) | relative viability (Lestaurtinib + AZD7762; first compound 0.01581 µM) | relative viability (Lestaurtinib + AZD7762; first compound 0.05 µM) | relative viability (Lestaurtinib + AZD7762; first compound 0.1581 µM) | relative viability (Lestaurtinib + AZD7762; first compound 0.5 µM) | relative viability ([2]; first compound 0.005 µM) | relative viability ([2]; first compound 0.01581 µM) | relative viability ([2]; first compound 0.05 µM) | relative viability ([2]; first compound 0.1581 µM) | relative viability ([2]; first compound 0.5 µM) | relative viability ([3]; first compound 0.2 µM) | relative viability ([3]; first compound 0.6325 µM) | relative viability ([3]; first compound 2 µM) | relative viability ([3]; first compound 6.325 µM) | relative viability ([3]; first compound 20 µM) |
| --- | --- | --- | --- | --- | --- | --- | --- | --- | --- | --- | --- | --- | --- | --- | --- | --- | --- | --- | --- | --- |
| 201T | 0.398 | 0.45 | 0.364 | 0.405 | 0.399 | 0.589 | 0.656 | 0.53 | 0.92 | 0.776 | 0.744 | 0.758 | 0.76 | 0.837 | 0.721 | 0.695 | 0.688 | 0.697 | 0.607 | 0.664 |
| A549 |  |  |  |  |  |  |  |  |  |  |  |  |  |  |  | 0.486 | 0.511 | 0.447 |  | 0.456 |
| A-427 | 0.506 | 0.554 | 0.521 | 0.444 | 0.207 | 0.712 | 0.755 | 0.645 | 0.433 | 0.215 | 0.783 | 0.807 | 0.729 | 0.344 | 0.203 | 0.761 | 0.82 | 0.923 | 0.706 | 0.733 |
| ABC-1 | 0.618 | 0.625 | 0.647 | 0.619 | 0.42 | 0.59 | 1.09 | 0.692 | 0.76 | 0.593 |  |  |  |  |  | 0.896 | 0.64 | 0.882 | 0.631 | 0.658 |
| BEN | 0.483 | 0.537 | 0.467 | 0.432 | 0.399 | 0.674 | 0.818 | 0.634 | 0.625 | 0.341 | 1.23 | 1.43 | 0.998 | 0.709 | 0.553 | 0.551 | 0.628 | 0.612 | 0.519 | 0.491 |
| CAL-12T | 0.365 | 0.526 | 0.409 | 0.302 | 0.183 | 0.573 | 0.813 | 0.557 | 0.599 | 0.54 | 0.364 | 0.337 | 0.314 | 0.288 | 0.23 | 0.381 | 0.464 | 0.578 | 0.352 | 0.377 |
| COR-L23 | 0.337 | 0.319 | 0.223 | 0.248 | 0.11 |  |  |  |  |  | 0.755 | 0.652 | 0.272 | 0.317 | 0.0849 | 0.765 | 0.827 | 0.922 | 0.674 | 0.892 |
| COR-L 105 | 0.434 | 0.425 | 0.376 | 0.419 | 0.348 |  |  |  |  |  | 0.408 | 0.419 | 0.446 | 0.347 | 0.341 | 0.409 | 0.364 | 0.386 | 0.327 | 0.356 |
| Calu-6 |  |  |  |  |  |  |  |  |  |  |  |  |  |  |  | 1.04 | 1.05 | 0.955 | 0.885 | 0.82 |
| ChaGo-K-1 | 0.977 | 0.89 | 0.77 | 0.779 | 0.671 | 0.924 | 0.834 | 0.775 | 0.816 | 0.461 | 0.899 | 1.02 | 0.704 | 0.773 | 0.645 | 0.653 | 0.699 | 0.756 | 0.487 | 0.538 |
| EBC-1 |  |  |  |  |  |  |  |  |  |  |  |  |  |  |  | 0.417 | 0.39 | 0.383 | 0.391 | 0.457 |
| EKVX | 0.346 |  | 0.355 | 0.421 | 0.426 | 0.718 |  | 0.643 | 0.755 | 0.546 | 0.507 |  | 0.362 | 0.372 | 0.356 | 0.44 | 0.431 | 0.415 | 0.34 | 0.467 |
| EMC-BAC-2 | 0.505 | 0.51 | 0.456 | 0.353 | 0.305 | 1.07 | 1.12 | 0.842 | 0.441 | 0.346 | 0.926 | 0.905 | 0.973 | 0.748 | 0.415 | 0.61 | 0.548 | 0.545 | 0.48 | 0.505 |
| EPLC-272H | 0.359 | 0.317 | 0.269 | 0.3 | 0.353 | 0.153 | 0.219 | 0.119 | 0.225 | 0.27 | 0.271 | 0.23 | 0.218 | 0.224 | 0.286 | 0.33 | 0.315 | 0.396 | 0.39 | 0.306 |
| H3255 | 0.301 | 0.349 | 0.324 | 0.337 | 0.249 | 0.961 | 0.945 | 0.866 | 0.879 | 0.543 | 0.587 | 0.787 | 0.496 | 0.546 | 0.386 | 0.545 | 0.452 | 0.467 | 0.405 | 0.506 |
| HARA | 0.233 | 0.32 | 0.278 | 0.234 | 0.243 | 0.287 | 0.392 | 0.282 | 0.294 | 0.307 | 0.639 | 0.832 | 0.685 | 1.09 | 0.268 | 0.452 | 0.448 | 0.508 | 0.504 | 0.445 |
| HCC-15 | 0.751 | 0.779 | 0.68 | 0.687 | 0.187 | 1.25 | 1.36 | 0.937 | 1.18 | 0.188 | 0.405 | 0.409 | 0.306 | 0.364 | 0.189 | 0.776 | 0.748 | 0.843 | 0.642 | 0.758 |
| HCC-44 | 0.958 | 1 | 1.04 | 1.1 | 0.732 | 0.949 | 1.08 | 1.09 | 1.14 | 0.75 | 1.04 | 1.04 | 1.04 | 1.16 | 0.593 | 0.624 | 0.605 | 0.693 | 0.591 | 0.79 |
| HCC-78 | 0.453 | 0.545 | 0.53 | 0.557 | 0.427 | 0.555 | 0.662 | 0.517 | 0.516 | 0.333 | 0.832 | 0.807 | 0.578 | 0.522 | 0.284 | 0.197 | 0.216 | 0.288 | 0.216 | 0.209 |
